pIC50: −log10 of the molar value.
Molecular target: T1, human TRPV3 (Homo sapiens, UniProt Q8NET8)
T1 construct: expressed in transfected cells; host or cells: HEK293
T1 sequence (Q8NET8 1-790): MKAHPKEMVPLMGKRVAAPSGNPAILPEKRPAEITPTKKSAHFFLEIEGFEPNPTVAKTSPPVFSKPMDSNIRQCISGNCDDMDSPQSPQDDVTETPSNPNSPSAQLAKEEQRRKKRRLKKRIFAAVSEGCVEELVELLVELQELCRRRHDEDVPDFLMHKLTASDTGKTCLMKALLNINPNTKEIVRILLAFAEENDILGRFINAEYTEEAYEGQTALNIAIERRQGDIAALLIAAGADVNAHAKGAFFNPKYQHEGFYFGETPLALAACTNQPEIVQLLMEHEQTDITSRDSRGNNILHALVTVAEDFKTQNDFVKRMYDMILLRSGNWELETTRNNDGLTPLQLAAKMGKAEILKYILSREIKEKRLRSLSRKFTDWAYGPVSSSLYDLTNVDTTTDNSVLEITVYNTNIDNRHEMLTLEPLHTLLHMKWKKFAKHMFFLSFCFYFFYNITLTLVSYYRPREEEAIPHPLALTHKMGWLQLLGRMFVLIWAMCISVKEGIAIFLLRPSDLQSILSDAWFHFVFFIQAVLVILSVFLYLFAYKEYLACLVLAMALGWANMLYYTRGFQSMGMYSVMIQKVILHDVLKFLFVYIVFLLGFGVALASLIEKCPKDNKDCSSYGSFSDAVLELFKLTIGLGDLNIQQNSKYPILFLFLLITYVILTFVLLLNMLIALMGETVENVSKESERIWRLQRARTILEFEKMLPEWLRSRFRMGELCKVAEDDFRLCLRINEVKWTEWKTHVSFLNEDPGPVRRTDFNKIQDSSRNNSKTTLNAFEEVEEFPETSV
Assay: Calcium flux assay (FLIPR TETRA), recombinant HEK293 cells expressing TRPV3, 2-APB response
Assay type: cell-based
Conditions: 2-APB at its EC80
Method in brief: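 Response is the peak fluorescence increase over baseline, as a percentage of the compound-free response to 2-APB at EC80. Calcium flux recorded on FLIPR TETRA in stable human or mouse TRPV3 HEK293 cells after 90–120 min Calcium-4 dye loading.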

pIC50 | SMILES
6.30 to 7.00 | COc1ncnc(OC)c1C(=O)Nc1nc(C(F)(F)F)c(C(O)c2ccc(F)cn2)s1 (stereo not drawn) [Example 130, N-{5-[(5-fluoropyridin-2-yl)(hydroxy)methyl]-4-(trifluoromethyl)-1,3-thiazol-2-yl}-4,6-dimethoxypyrimidine-5-carboxamide]
> 7.30 | COc1ncnc(OC)c1C(=O)Nc1nc(C(F)(F)F)c(C(=O)c2ccc(F)cn2)s1 [Example 131, N-{5-[(5-fluoropyridin-2-yl)carbonyl]-4-(trifluoromethyl)-1,3-thiazol-2-yl}-4,6-dimethoxypyrimidine-5-carboxamide]
> 7.30 | COc1ncnc(OC)c1C(=O)Nc1nc(C(F)(F)F)c(/C(=N/O)c2ccc(F)cn2)s1 [Example 132, N-{5-[(E)-(5-fluoropyridin-2-yl)(hydroxyimino)methyl]-4-(trifluoromethyl)-1,3-thiazol-2-yl}-4,6-dimethoxypyrimidine-5-carboxamide]
6.30 to 7.00 | COc1ncnc(OC)c1C(=O)Nc1nc(C(F)(F)F)c(C(C)=O)s1 [Example 133, N-[5-acetyl-4-(trifluoromethyl)-1,3-thiazol-2-yl]-4,6-dimethoxypyrimidine-5-carboxamide]
6.30 to 7.00 | COc1ncnc(OC)c1C(=O)Nc1nc(C(F)(F)F)c(/C(C)=N/O)s1 [Example 134, N-{5-[(1E)-N-hydroxyethanimidoyl]-4-(trifluoromethyl)-1,3-thiazol-2-yl}-4,6-dimethoxypyrimidine-5-carboxamide]
> 7.30 | CO/N=C(\C)c1sc(NC(=O)c2c(OC)ncnc2OC)nc1C(F)(F)F [Example 135, 4,6-dimethoxy-N-{5-[(1E)-N-methoxyethanimidoyl]-4-(trifluoromethyl)-1,3-thiazol-2-yl}pyrimidine-5-carboxamide]
> 7.30 | CO/N=C(/C)c1sc(NC(=O)c2c(OC)ncnc2OC)nc1C(F)(F)F [Example 136, 4,6-dimethoxy-N-{5-[(1Z)—N-methoxyethanimidoyl]-4-(trifluoromethyl)-1,3-thiazol-2-yl}pyrimidine-5-carboxamide]
7.00 to 7.30 | COc1ncnc(OC)c1C(=O)Nc1nc(C(F)(F)F)c(C2(C)OCCO2)s1 [Example 137, 4,6-dimethoxy-N-[5-(2-methyl-1,3-dioxolan-2-yl)-4-(trifluoromethyl)-1,3-thiazol-2-yl]pyrimidine-5-carboxamide]
6.30 to 7.00 | COc1ncnc(OC)c1C(=O)Nc1nc(C(F)(F)F)c(C2OCCO2)s1 [Example 138, N-[5-(1,3-dioxolan-2-yl)-4-(trifluoromethyl)-1,3-thiazol-2-yl]-4,6-dimethoxypyrimidine-5-carboxamide]
6.30 to 7.00 | COc1ncnc(OC)c1C(=O)Nc1nc(C(F)(F)F)c(C2OCCCO2)s1 [Example 139, N-[5-(1,3-dioxan-2-yl)-4-(trifluoromethyl)-1,3-thiazol-2-yl]-4,6-dimethoxypyrimidine-5-carboxamide]
7.00 to 7.30 | COc1ncnc(OC)c1C(=O)Nc1nc(C(F)(F)F)c(-c2cnco2)s1 [Example 140, 4,6-dimethoxy-N-[5-(1,3-oxazol-5-yl)-4-(trifluoromethyl)-1,3-thiazol-2-yl]pyrimidine-5-carboxamide]
7.00 to 7.30 | COc1ncnc(OC)c1C(=O)Nc1nc(C(F)(F)F)c(-c2ocnc2C)s1 [Example 141, 4,6-dimethoxy-N-[5-(4-methyl-1,3-oxazol-5-yl)-4-(trifluoromethyl)-1,3-thiazol-2-yl]pyrimidine-5-carboxamide]
6.30 to 7.00 | CCn1nccc1-c1sc(NC(=O)c2c(OC)ncnc2OC)nc1C(F)(F)F [Example 142, N-[5-(1-ethyl-1H-pyrazol-5-yl)-4-(trifluoromethyl)-1,3-thiazol-2-yl]-4,6-dimethoxypyrimidine-5-carboxamide]
> 7.30 | COc1ncnc(OC)c1C(=O)Nc1nc(C(F)(F)F)c(C2=CCCO2)s1 [Example 143, N-[5-(4,5-dihydrofuran-2-yl)-4-(trifluoromethyl)-1,3-thiazol-2-yl]-4,6-dimethoxypyrimidine-5-carboxamide]
7.00 to 7.30 | COc1ncnc(OC)c1C(=O)Nc1nc(C(F)(F)F)c(C2CCCO2)s1 (stereo not drawn) [Example 144, 4,6-dimethoxy-N-[5-(tetrahydrofuran-2-yl)-4-(trifluoromethyl)-1,3-thiazol-2-yl]pyrimidine-5-carboxamide]
> 7.30 | COc1ncnc(OC)c1C(=O)Nc1nc(C(F)(F)F)c(C2=COCC2)s1 [Example 145, N-(5-(4,5-dihydrofuran-3-yl)-4-(trifluoromethyl)thiazol-2-yl)-4,6-dimethoxypyrimidine-5-carboxamide]
6.30 to 7.00 | COc1ncnc(OC)c1C(=O)Nc1nc(C(F)(F)F)c(C2CCOC2)s1 (stereo not drawn) [Example 146, 4,6-dimethoxy-N-[5-(tetrahydrofuran-3-yl)-4-(trifluoromethyl)-1,3-thiazol-2-yl]pyrimidine-5-carboxamide]
7.00 to 7.30 | COc1ncnc(OC)c1C(=O)Nc1nc(C(F)(F)F)c(C2=COCCC2)s1 [Example 147, N-[5-(3,4-dihydro-2H-pyran-5-yl)-4-(trifluoromethyl)-1,3-thiazol-2-yl]-4,6-dimethoxypyrimidine-5-carboxamide]
7.00 to 7.30 | COc1ncnc(OC)c1C(=O)Nc1nc(C(F)(F)F)c(C2CCCOC2)s1 (stereo not drawn) [Example 148, 4,6-dimethoxy-N-[5-(tetrahydro-2H-pyran-3-yl)-4-(trifluoromethyl)-1,3-thiazol-2-yl]pyrimidine-5-carboxamide]
> 7.30 | COc1ncnc(OC)c1C(=O)Nc1nc(C(F)(F)F)c(-c2ccnc(C3(C#N)CC3)c2)s1 [Example 151, N-{5-[2-(1-cyanocyclopropyl)pyridin-4-yl]-4-(trifluoromethyl)-1,3-thiazol-2-yl}-4,6-dimethoxypyrimidine-5-carboxamide]
6.30 to 7.00 | COc1ncnc(OC)c1C(=O)Nc1nc(C(F)(F)F)c(-c2ccnc(CC#N)c2)s1 [Example 152, N-{5-[2-(cyanomethyl)pyridin-4-yl]-4-(trifluoromethyl)-1,3-thiazol-2-yl}-4,6-dimethoxypyrimidine-5-carboxamide]
> 7.30 | COc1ncnc(OC)c1C(=O)Nc1nc(C(F)(F)F)c(-c2cccc(F)n2)s1 [Example 153, N-[5-(6-fluoropyridin-2-yl)-4-(trifluoromethyl)-1,3-thiazol-2-yl]-4,6-dimethoxypyrimidine-5-carboxamide]
7.00 to 7.30 | COc1ncnc(OC)c1C(=O)Nc1nc(C(F)(F)F)c(-c2cccc(C3(C#N)COC3)n2)s1 [Example 154, N-{5-[6-(3-cyanooxetan-3-yl)pyridin-2-yl]-4-(trifluoromethyl)-1,3-thiazol-2-yl}-4,6-dimethoxypyrimidine-5-carboxamide]
6.30 to 7.00 | COc1ncnc(OC)c1C(=O)Nc1nc(C(F)(F)F)c(-c2cccc(CC#N)n2)s1 [Example 155, N-{5-[6-(cyanomethyl)pyridin-2-yl]-4-(trifluoromethyl)-1,3-thiazol-2-yl}-4,6-dimethoxypyrimidine-5-carboxamide]
> 7.30 | COc1ncnc(OC)c1C(=O)Nc1nc(C(F)(F)F)c(-c2cncc(OC(C)C)c2)s1 [Example 156, 4,6-dimethoxy-N-{5-[5-(propan-2-yloxy)pyridin-3-yl]-4-(trifluoromethyl)-1,3-thiazol-2-yl}pyrimidine-5-carboxamide]
7.00 to 7.30 | COc1ncnc(OC)c1C(=O)Nc1nc(C(F)(F)F)c(-c2ccc(C3(C#N)CC3)cn2)s1 [Example 157, N-{5-[5-(1-cyanocyclopropyl)pyridin-2-yl]-4-(trifluoromethyl)-1,3-thiazol-2-yl}-4,6-dimethoxypyrimidine-5-carboxamide]
> 7.30 | COc1ncnc(OC)c1C(=O)Nc1nc(C(F)(F)F)c(-c2ccc(C(C)(C)C#N)cn2)s1 [Example 158, N-{5-[5-(2-cyanopropan-2-yl)pyridin-2-yl]-4-(trifluoromethyl)-1,3-thiazol-2-yl}-4,6-dimethoxypyrimidine-5-carboxamide]
> 7.30 | COc1ncnc(SC)c1C(=O)Nc1nc(C(F)(F)F)c(-c2ccccc2C#N)s1 [Example 159, N-[5-(2-cyanophenyl)-4-(trifluoromethyl)-1,3-thiazol-2-yl]-4-methoxy-6-(methylsulfanyl)pyrimidine-5-carboxamide]
> 7.30 | CCSc1ncnc(OC)c1C(=O)Nc1nc(C(F)(F)F)c(-c2ccccc2C#N)s1 [Example 160, N-[5-(2-cyanophenyl)-4-(trifluoromethyl)-1,3-thiazol-2-yl]-4-(ethylsulfanyl)-6-methoxypyrimidine-5-carboxamide]
6.30 to 7.00 | COc1nc(C#N)nc(C(F)(F)F)c1C(=O)Nc1nc(C(F)(F)F)c(I)s1 [Example 161, 2-cyano-N-[5-iodo-4-(trifluoromethyl)-1,3-thiazol-2-yl]-4-methoxy-6-(trifluoromethyl)pyrimidine-5-carboxamide]
